From patent US20240376148A1, “MEDICAMENT FOR INHIBITING DIETARY OBESITY AND POLYPEPTIDE USED THEREFOR” (INSTITUTE OF ZOOLOGY, CHINESE ACADEMY OF SCIENCES, priority 2022, published 2024)

How the values were obtained:
[1] = Rat feeding experiment (high-fat diet); assay type: in vivo, Sprague Dawley (SD) rats; details: SD rats, 10 weeks
Procedure: Sprague Dawley (SD) rats were used in the rat experiment. At the beginning of the experiment, the rats were 4 weeks old, and each weighed 137±5 g. They were raised in a room with suitable temperature and humidity control, and the light/dark cycle was 12 hours, free diet and drinking water, and fed with standard laboratory feed (a growth and reproduction feed, SPFSLFZ003). After one week of adaptation, they were randomly assigned to a cage. HD treatment was represented by D3, a total of 3 treatments were set up, and each treatment was subjected to different feeding treatments, specifically as follows (see figure a of FIG. 7):
NC group (i.e. normal diet group): 8 rats were fed with standard laboratory feed (also known as growth and reproduction feed, SPFSLFZ003), free diet and drinking water for 10 weeks.
HFD group (i.e. high-fat diet group): 8 rats were fed with high-fat diet, the high-fat diet used was rodent feed (containing 60 kcal % fat, D12492), free diet and drinking water for 10 weeks.
D3 group (i.e. high-fat diet+D3 medicine intragastric administration group): 10 rats were fed with high-fat diet, free diet and drinking water. Intragastrically administrated with HD (choose D3), 0.5 mg-2 mg/Kg body weight, 0.5 ml, once/day for 10 weeks.
Body weights were monitored weekly. […]

A. muciniphila = assay: qPCR of relative abundance of A. muciniphila in intestinal flora of SPF mice; assay type: in vivo; details: p<0.05
Procedure: In order to verify the changes in the relative abundance of A.muciniphila in the intestinal flora of mice fed with other HD, qPCR experiments were performed on the changes of intestinal flora in mice. Faecal bacterial DNA was extracted from the faeces of mice in the NC, HFD, D1, D2, D3, D5, D7, D8, D9 and D10 groups collected in the pre-SPF mice experiments and then the relative abundance of A. muciniphila was determined using qPCR.

[2] = Short-term feed intake experiment of SPF rats; assay type: in vivo; details: after 8 weeks of treatment, p<0.05
Excerpt: A total of 2 treatments were set up, with 5 rats in each treatment, and each treatment was subjected to different feeding treatments, specifically as follows:
HFD group (i.e. high-fat diet group): 8 rats were fed with high-fat diet, the high-fat diet used was rodent feed (containing 60 kcal % fat, D12492), free diet and drinking water for 8 weeks.
D3 group (i.e. high-fat diet+D3 medicine intragastric administration group): 10 rats were fed with high-fat diet, free diet and drinking water. Intragastrically administrated with HD (choose D3), 0.5 mg-2 mg/Kg body weight, 0.5 ml, once/day for 8 weeks.
According to the above treatment, it was carried out for 8 weeks, and then within 1 week, the rats were starved for one day and then given feed, and the feed intake of the animals in the following day was recorded. That is, food weights were recorded every other day (4 separate measurements) and the average daily intake was determined for each 2-day period and calculated for each individual during the one-week measurement period. The obtained were the results of the short-term intake statistics (unit: g/only/day).

fecal flora = assay: 16s amplicon sequencing of fecal flora of SPF mice; assay type: in vivo; details: SPF mice feces
Procedure: At this time, in order to further confirm whether the reason for the weight loss of the SPF mice was related to the change of the ecological structure of the intestinal flora, the feces of mice in NC, HFD and D3 groups collected in the previous SPF mice experiment were analyzed by 16 s amplicon sequencing. sequencing method (reference: Quan, LH, et al. Myristoleic acid produced by enterococci reduces obesity through brown adipose tissue activation. Gut 69, 1239-1247 (2020).) was used to analyze the fecal flora of mice.

Guca2b [3] = assay: qPCR of Guca2b mRNA in the ileum of rats; assay type: in vivo
Procedure: (§1) qPCR gene expression was carried out using the StepOnePlus real-time fluorescent quantitative PCR system. Three technical replicates were performed for each sample, and the identity and purity of the amplified product were checked by analyzing the melting curve at the end of the amplification. Gene expression results were referenced to the percent expression of each gene normalized to glyceraldehyde-3-phosphate dehydrogenase (GAPDH).

[4] = GF mice experiment (high-fat diet); assay type: in vivo, Germ-free (GF) C57B1/6 mice
Excerpt: To further determine the relative contribution of the microbiota to the anti-obesity effects of HD, D3 was chosen for GF mice experiment.
Germ-free (GF) C57B1/6 mice were used in the GF mice experiment, kept in a germ-free isolator, and their GF status was verified by fecal PCR every month. At the beginning of the experiment, germ-free (GF) C57B1/6 mice were 4 weeks old, each weighed 14±1 g. They were raised in a room with suitable temperature and humidity control, and the light/dark cycle was 12 hours, free diet and drinking water, and fed with standard laboratory feed (growth and reproduction feed, SPFSLFZ003, product of SPF (Beijing) Experimental Animal Technology Co., Ltd.), after one week of adaptation, they were randomly assigned to each cage, 4-6 mice per cage. A total of 3 treatments were set up, each with 1 cage, and each treatment was subjected to different feeding treatments, specifically as follows:
NC group (i.e. normal diet group): fed with standard laboratory feed (also known as growth and reproduction feed, SPFSLFZ003), free diet and drinking water for 8 weeks.
HFD group (i.e. high-fat diet group): fed with high-fat diet, the high-fat diet used was rodent feed (containing 60 kcal % fat, D12492), free diet and drinking water for 8 weeks.
D3 group (i.e. high-fat diet+D3 medicine intragastric administration group): fed with high-fat diet, free diet and drinking water. Intragastrically administrated with D3 medicine, 0.75 mg-3 mg/Kg body weight, 0.2 ml, once/day for 8 weeks.
Food intake and body weight were monitored weekly.
After the experiment on GF mice, the mice were killed by cervical dislocation. The heart, liver, spleen, lung, kidney, blood, ileum, cecum, and colon were harvested, immediately placed in liquid nitrogen, and stored at −80° C. for further analysis. Precisely dissected and subcutaneous and visceral fat deposits were weighed.

Guca2b [5] = assay: Ileum transcriptome sequencing and qPCR gene expression in mice; assay type: in vivo; details: P<0.01
Procedure: In order to find the target genes that D3 may act on, the inventors performed ileal transcriptome analysis. Three samples from each group of mice were selected as targets for transcriptome sequencing. Ileal RNA was extracted using the Trizol method and an Agilent 2100 analyser was required to detect the RNA quality above 7 for RNA library construction. After passing the sample test, 2 μg of total RNA was taken from each sample to construct a transcriptome sequencing library. After data acquisition, the RNA-seq data was first de-redundantly removed using Trim galore v0.4.4 to remove junctions and low quality sequences. Using GRCm38 as the mice reference genome, HISAT2 v2.0.5 and StringTie v1.3.4 were used to quantify the abundance of each gene. Differential expression analysis was performed using DESeq2 v1.24.0.
as §1

RTRYCRTGR [D3]
decrease of growth rate of body weight ([1]; vs HFD group): 8.96±3.11%
body weight compared with the HFD group ([1]; intragastric 0.5 mg-2 mg/Kg once/day): significantly lower than that of the HFD group
relative abundance of A. muciniphila in the intestinal flora by qPCR (A. muciniphila): significantly increased
daily feed intake (short-term) vs HFD group [2]: significantly lower
abundance of Bacteroides and A. muciniphila (LEfSc analysis) (fecal flora): significant increase
abundance of Prevotella, Desulfovibrio and Lawsonia (LEfSc analysis) (fecal flora): significant decrease
fecal flora (diversity analysis and PCOA) vs HFD group (fecal flora): significantly different from that of the HFD group
mRNA level of UGN in the ileum (Guca2b [3]): increased significantly
subcutaneous and visceral fat weight (inguinal subcutaneous, epididymis, perinephric) vs HFD group ([4]; 8 weeks): significantly lower than that of the HFD group
weekly feed intake vs control HFD group ([4]; after 3-4 weeks): significant gap
body weight compared with the HFD group ([4]; intragastric 0.75 mg-3 mg/Kg once/day, 8 weeks): decreased significantly
expression of UGN (Guca2b) in the ileum (Guca2b [5]; GF mice): significantly up-regulated
expression of UGN (Guca2b) in the ileum (Guca2b [5]; SPF mice): significantly up-regulated
